Two sequences from US20070128217A1 (priority 2003, published 2007) can be followed below.

For experiment [1], the system named is control sera (pooled serum of ten healthy LUMC hospital workers; commercial negative donor pooled serum from the Dutch bloodbank). It counts as binding, human. More on the design: Binding of Control serum LUMC to linear peptides / Binding of Control serum Blood-bank to linear peptides / Binding of Control serum LUMC to looped peptides / Binding of Control Serum Blood-Bank to Looped peptides / Binding of Control serum LUMC to linear peptides of the protein M of SARS-CoV Urbani / Binding of Control serum Blood-bank to linear peptides of the protein M of SARS-CoV Urbani / Binding of Control serum LUMC to looped peptides of the protein M of SARS-CoV Urbani / Binding of Control Serum Blood-Bank to Looped peptides of the protein M of SARS-CoV Urbani: unit not given here.

For experiment [2], the system named is rabbit serum obtained by immunizing a rabbit with the SARS-CoV strain Frankfurt 1. It counts as binding. Details: Binding of a rabbit serum to linear peptides / Binding of a rabbit serum to looped peptides / Rabbit serum linear peptides / Rabbit serum looped peptides / Binding of a rabbit serum to linear peptides of protein N of SARS-CoV Urbani (Rabbit serum linear peptides) / Binding of a rabbit serum to looped/cyclic peptides of protein N of SARS-CoV Urbani (Rabbit serum looped peptides): unit not given here.

Experiment [3] relates to antibodies in sera from SARS patients (sera 1a, 1b, 2, 6, 37, 62, London, SARS-yellow, SARS-green). The format is binding, human. More on the design: Binding of serum 6 to linear peptides of protein X1 of SARS-CoV Urbani / Binding of serum 37 to linear peptides of protein X1 of SARS-CoV Urbani / Binding of serum 6 to looped/cyclic peptide (PEPSCAN-ELISA) / Binding of serum 37 to looped/cyclic peptide (PEPSCAN-ELISA) / Binding of serum 37 to looped/cyclic peptides of protein X1 of SARS-CoV Urbani / Binding of serum 6 to linear peptides of protein X2 / Binding of serum 37 to linear peptides of protein X2 / Binding of serum 37 to looped/cyclic peptides of protein X2 of SARS-CoV Urbani / Binding of serum 6 to linear peptides of protein M of SARS-CoV Urbani / Binding of serum 37 to linear peptides of protein M of SARS-CoV Urbani / Binding of serum 6 to looped/cyclic peptides of protein M of SARS-CoV Urbani / Binding of serum 37 to looped/cyclic peptides of protein M of SARS-CoV Urbani / Binding of serum 6 to linear peptides of protein X3 of SARS-CoV Urbani / Binding of serum 37 to linear peptides of protein X3 of SARS-CoV Urbani / Binding of serum 37 to looped/cyclic peptides of protein X3 of SARS-CoV Urbani / Binding of serum 6 to linear peptides of protein X4 of SARS-CoV Urbani / Binding of serum 37 to linear peptides of protein X4 of SARS-CoV Urbani / Binding of serum 37 to looped/cyclic peptides of protein X4 of SARS-CoV Urbani / Binding of serum 6 to linear peptides of protein X5 of SARS-CoV Urbani / Binding of serum 37 to linear peptides of protein X5 of SARS-CoV Urbani / Binding of serum 37 to looped/cyclic peptides of protein X5 of SARS-CoV Urbani / Binding of serum 6 to linear peptides of protein N of SARS-CoV Urbani / Binding of serum 37 to linear peptides of protein N of SARS-CoV Urbani / Binding of serum 6 to linear peptide (PEPSCAN-ELISA) / Binding of serum 1a to looped/cyclic peptides of protein N of SARS-CoV Urbani / Binding of serum 1b to looped/cyclic peptides of protein N of SARS-CoV Urbani / Binding of serum 2 to looped/cyclic peptides of protein N of SARS-CoV Urbani / Binding of serum 6 to looped/cyclic peptides of protein N of SARS-CoV Urbani / Binding of serum 37 to looped/cyclic peptides of protein N of SARS-CoV Urbani / Binding of serum 62 to looped/cyclic peptides of protein N of SARS-CoV Urbani / Binding of serum London to looped/cyclic peptides of protein N of SARS-CoV Urbani / Binding of serum SARS-green to looped/cyclic peptides of protein N of SARS-CoV Urbani: unit not given here.

Consider FAFACADGTRHTYQL, for which, in experiment [1], the “Binding of Control Serum Blood-Bank to Looped peptides” value is reported as 0.8, the “Binding of Control serum Blood-bank to linear peptides” value was 0.7, the “Binding of Control serum LUMC to linear peptides” value amounted to 0.5 and the “Binding of Control serum LUMC to looped peptides” value was determined as 0.7. Besides, in experiment [2], the “Rabbit serum linear peptides” value was 0.5 and the “Rabbit serum looped peptides” value worked out at 0.1. Also, in experiment [3], the “Binding of serum 1a to linear peptides of protein X4 of SARS-CoV Urbani” value was 0.7, the “Binding of serum 1a to looped/cyclic peptides of protein X4 of SARS-CoV Urbani” value came out at 0.8, the “Binding of serum 1b to linear peptides of protein X4 of SARS-CoV Urbani” value is reported as 0.5 and the “Binding of serum 1b to looped/cyclic peptides of protein X4 of SARS-CoV Urbani” value turned out to be 0.5. In experiment [3], the “Binding of serum 2 to linear peptides of protein X4 of SARS-CoV Urbani” value was found to be 0.3, the “Binding of serum 2 to looped/cyclic peptides of protein X4 of SARS-CoV Urbani” value was 0.9, the “Binding of serum 6 to linear peptides of protein X4 of SARS-CoV Urbani” value was 0.5 and the “Binding of serum 6 to looped/cyclic peptides of protein X4 of SARS-CoV Urbani” value was determined as 0.5. In experiment [3], the “Binding of serum 37 to linear peptides of protein X4 of SARS-CoV Urbani” value amounted to 0.6, the “Binding of serum 37 to looped/cyclic peptides of protein X4 of SARS-CoV Urbani” value amounted to 0.6, the “Binding of serum 62 to linear peptides of protein X4 of SARS-CoV Urbani” value is given as 0.7 and the “Binding of serum 62 to looped/cyclic peptides of protein X4 of SARS-CoV Urbani” value is given as 0.5. In experiment [3], the “Binding of serum London to linear peptides of protein X4 of SARS-CoV Urbani” value is given as 0.6, the “Binding of serum London to looped/cyclic peptides of protein X4 of SARS-CoV Urbani” value was 0.2, the “Binding of serum SARS-green to linear peptides of protein X4 of SARS-CoV Urbani” value is on record as 0.4 and the “Binding of serum SARS-green to looped/cyclic peptides of protein X4 of SARS-CoV Urbani” value is reported as 0.5. For the same sequence, in experiment [3], the “Binding of serum SARS-yellow to linear peptides of protein X4 of SARS-CoV Urbani” value is 0.2 and the “Binding of serum SARS-yellow to looped/cyclic peptides of protein X4 of SARS-CoV Urbani” value came to 0.4.

For the sequence FAYSNRNRFLYIIKL, in experiment [1], the “Binding of Control Serum Blood-Bank to Looped peptides of the protein M of SARS-CoV Urbani” value was found to be 0.4, the “Binding of Control serum Blood-bank to linear peptides of the protein M of SARS-CoV Urbani” value is recorded as 0.6, the “Binding of Control serum LUMC to linear peptides of the protein M of SARS-CoV Urbani” value was found to be 0.4 and the “Binding of Control serum LUMC to looped peptides of the protein M of SARS-CoV Urbani” value came to 0.6. Also, in experiment [2], the “Rabbit serum linear peptides” value came to 0.7 and the “Rabbit serum looped peptides” value is 0.6. In experiment [3], the “Binding of serum 1a to linear peptides of protein M of SARS-CoV Urbani” value came to 0.6, the “Binding of serum 1b to linear peptides of protein M of SARS-CoV Urbani” value is listed as 0.4, the “Binding of serum 2 to linear peptides of protein M of SARS-CoV Urbani” value is given as 0.7 and the “Binding of serum 6 to linear peptides of protein M of SARS-CoV Urbani” value is recorded as 0.3. Moreover, in experiment [3], the “Binding of serum 37 to linear peptides of protein M of SARS-CoV Urbani” value is given as 0.7, the “Binding of serum 62 to linear peptides of protein M of SARS-CoV Urbani” value is 0.7, the “Binding of serum London to linear peptides of protein M of SARS-CoV Urbani” value is reported as 0.3 and the “Binding of serum SARS-green to linear peptides of protein M of SARS-CoV Urbani” value is given as 0.2. In experiment [3], the “Binding of serum SARS-yellow to linear peptides of protein M of SARS-CoV Urbani” value was determined as 0.1; the “Recognition of the peptide by sera of SARS-CoV infected individuals, and form (linear, looped/cyclic) in which it is recognized” value was “recognized in looped/cyclic form”.
